In the supplement of paper PMC8960247:
± gives the standard error.

Legend:
621-103 (TSC2-rescued) = test: relative viability vs DMSO; higher = less cytotoxic; details: serum: 10% FBS, 72 h
621-102 (TSC2-deficient) = test: as above; details: serum: 10% FBS, 72 h
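Further: immortalized renal angiomyolipoma cells stably carrying empty vector or TSC2, dosed in 384-well plates in DMEM, viability normalized to vehicle-treated wells within each plate.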

With COCC(=O)NC/C=C/c1ccc2ncnc(Nc3ccc(Oc4ccc(C)nc4)c(C)c3)c2c1 the relative viability (621-103 (TSC2-rescued); 0.0001 µM) was 101 ± 1.9%, the relative viability (621-103 (TSC2-rescued); 0.001 µM) was 101.6 ± 0.36% and the relative viability (621-103 (TSC2-rescued); 0.01 µM) was 103.06 ± 0.024%. For the same compound, the relative viability (621-103 (TSC2-rescued); 0.1 µM) was 104 ± 1.2%, the relative viability (621-103 (TSC2-rescued); 1 µM) was 103.7 ± 0.92% and the relative viability (621-103 (TSC2-rescued); 10 µM) was 107.8 ± 0.28%. For the same compound, the relative viability (621-102 (TSC2-deficient); 0.0001 µM) was 100 ± 2.7%, the relative viability (621-102 (TSC2-deficient); 0.001 µM) was 97.758 ± 0.079% and the relative viability (621-102 (TSC2-deficient); 0.01 µM) was 97.3 ± 1.7%. For the same compound, the relative viability (621-102 (TSC2-deficient); 0.1 µM) was 93.9 ± 1.9%, the relative viability (621-102 (TSC2-deficient); 1 µM) was 98.9 ± 2.8% and the relative viability (621-102 (TSC2-deficient); 10 µM) was 93.2 ± 2.4%.
Work on COc1cc2c(Nc3ccc(NC(=O)c4ccccc4)cc3)ncnc2cc1OCCCN1CCOCC1 yielded a relative viability (621-103 (TSC2-rescued); 0.0001 µM) of 104 ± 1.1%, a relative viability (621-103 (TSC2-rescued); 0.001 µM) of 111 ± 4.9% and a relative viability (621-103 (TSC2-rescued); 0.01 µM) of 104 ± 1.9%. For the same compound, the relative viability (621-103 (TSC2-rescued); 0.1 µM) was 105 ± 1.6%, the relative viability (621-103 (TSC2-rescued); 1 µM) was 95.8 ± 2.5% and the relative viability (621-103 (TSC2-rescued); 10 µM) was 12.4 ± 0.25%. The relative viability (621-102 (TSC2-deficient); 0.0001 µM) was 97.1 ± 1.7%, the relative viability (621-102 (TSC2-deficient); 0.001 µM) was 91.95 ± 0.3% and the relative viability (621-102 (TSC2-deficient); 0.01 µM) was 108 ± 2%. It also gave a relative viability (621-102 (TSC2-deficient); 0.1 µM) of 90.2 ± 5.2%, a relative viability (621-102 (TSC2-deficient); 1 µM) of 79.6 ± 3.6% and a relative viability (621-102 (TSC2-deficient); 10 µM) of 7.78 ± 0.95%.
For COc1cc2c(Oc3ccc(NC(=O)C4(C(=O)Nc5ccc(F)cc5)CC4)cc3F)ccnc2cc1OCCCN1CCOCC1, the relative viability (621-103 (TSC2-rescued); 0.0001 µM) was 97.08 ± 0.89%, the relative viability (621-103 (TSC2-rescued); 0.001 µM) was 97.1 ± 1.1% and the relative viability (621-103 (TSC2-rescued); 0.01 µM) was 93.9 ± 3.7%. For the same compound, the relative viability (621-103 (TSC2-rescued); 0.1 µM) was 91.72 ± 0.35%, the relative viability (621-103 (TSC2-rescued); 1 µM) was 69.1 ± 1.5% and the relative viability (621-103 (TSC2-rescued); 10 µM) was 1.1 ± 0.14%. It also gave a relative viability (621-102 (TSC2-deficient); 0.0001 µM) of 108 ± 7.4%, a relative viability (621-102 (TSC2-deficient); 0.001 µM) of 111 ± 6.2% and a relative viability (621-102 (TSC2-deficient); 0.01 µM) of 98 ± 5.1%. It also gave a relative viability (621-102 (TSC2-deficient); 0.1 µM) of 102 ± 5.8%, a relative viability (621-102 (TSC2-deficient); 1 µM) of 84.55 ± 0.78% and a relative viability (621-102 (TSC2-deficient); 10 µM) of 2.81 ± 0.28%.
With COc1cc2ncnc(-n3nc(-c4ccccn4)nc3N)c2cc1OC the relative viability (621-103 (TSC2-rescued); 0.0001 µM) was 106 ± 1.7%, the relative viability (621-103 (TSC2-rescued); 0.001 µM) was 107 ± 2.5% and the relative viability (621-103 (TSC2-rescued); 0.01 µM) was 109 ± 4%. It also gave a relative viability (621-103 (TSC2-rescued); 0.1 µM) of 108.3 ± 0.77%, a relative viability (621-103 (TSC2-rescued); 1 µM) of 110.4 ± 0.79% and a relative viability (621-103 (TSC2-rescued); 10 µM) of 48.2 ± 3.8%. The relative viability (621-102 (TSC2-deficient); 0.0001 µM) was 101 ± 1.5%, the relative viability (621-102 (TSC2-deficient); 0.001 µM) was 103 ± 2.7% and the relative viability (621-102 (TSC2-deficient); 0.01 µM) was 107 ± 2.2%. For the same compound, the relative viability (621-102 (TSC2-deficient); 0.1 µM) was 98.84 ± 0.53%, the relative viability (621-102 (TSC2-deficient); 1 µM) was 94.28 ± 0.36% and the relative viability (621-102 (TSC2-deficient); 10 µM) was 49.6 ± 1.6%.
COc1ccc([C@]2(C#N)CC[C@@H](C(=O)O)CC2)cc1OC1CCCC1 was tested, and the relative viability (621-103 (TSC2-rescued); 0.0001 µM) was 102.2 ± 0.093%, the relative viability (621-103 (TSC2-rescued); 0.001 µM) was 98 ± 0.98% and the relative viability (621-103 (TSC2-rescued); 0.01 µM) was 97.1 ± 1.8%. The relative viability (621-103 (TSC2-rescued); 0.1 µM) was 106.2 ± 0.53%, the relative viability (621-103 (TSC2-rescued); 1 µM) was 93.85 ± 0.76% and the relative viability (621-103 (TSC2-rescued); 10 µM) was 93.4 ± 2.3%. For the same compound, the relative viability (621-102 (TSC2-deficient); 0.0001 µM) was 96.5 ± 2.4%, the relative viability (621-102 (TSC2-deficient); 0.001 µM) was 102.9 ± 0.13% and the relative viability (621-102 (TSC2-deficient); 0.01 µM) was 95.4 ± 2.6%. The relative viability (621-102 (TSC2-deficient); 0.1 µM) was 102 ± 2.7%, the relative viability (621-102 (TSC2-deficient); 1 µM) was 105 ± 1.7% and the relative viability (621-102 (TSC2-deficient); 10 µM) was 98.6 ± 0.28%.
For COc1ccccc1N1CCN(CCN(C(=O)C2CCCCC2)c2ccccn2)CC1, the relative viability (621-103 (TSC2-rescued); 0.0001 µM) was 102.1 ± 1%, the relative viability (621-103 (TSC2-rescued); 0.001 µM) was 99 ± 5.8% and the relative viability (621-103 (TSC2-rescued); 0.01 µM) was 99.5 ± 5.7%. The relative viability (621-103 (TSC2-rescued); 0.1 µM) was 110 ± 1.8%, the relative viability (621-103 (TSC2-rescued); 1 µM) was 108 ± 1.8% and the relative viability (621-103 (TSC2-rescued); 10 µM) was 98.5 ± 2.6%. The relative viability (621-102 (TSC2-deficient); 0.0001 µM) was 108 ± 0.74%, the relative viability (621-102 (TSC2-deficient); 0.001 µM) was 102.3 ± 0.41% and the relative viability (621-102 (TSC2-deficient); 0.01 µM) was 100 ± 1.5%. It also gave a relative viability (621-102 (TSC2-deficient); 0.1 µM) of 104.2 ± 0.32%, a relative viability (621-102 (TSC2-deficient); 1 µM) of 97.19 ± 0.27% and a relative viability (621-102 (TSC2-deficient); 10 µM) of 99.4 ± 1%.
Work on COc1ccnc2[nH]cc(C(=O)C(=O)N3CCN(C(=O)c4ccccc4)C[C@H]3C)c12 yielded a relative viability (621-103 (TSC2-rescued); 0.0001 µM) of 112 ± 3.3%, a relative viability (621-103 (TSC2-rescued); 0.001 µM) of 112 ± 1.2% and a relative viability (621-103 (TSC2-rescued); 0.01 µM) of 108 ± 1.6%. It also gave a relative viability (621-103 (TSC2-rescued); 0.1 µM) of 103 ± 1.8%, a relative viability (621-103 (TSC2-rescued); 1 µM) of 106 ± 1.2% and a relative viability (621-103 (TSC2-rescued); 10 µM) of 115 ± 1.5%. The relative viability (621-102 (TSC2-deficient); 0.0001 µM) was 105 ± 6.5%, the relative viability (621-102 (TSC2-deficient); 0.001 µM) was 106 ± 3.8% and the relative viability (621-102 (TSC2-deficient); 0.01 µM) was 111 ± 2.5%. The relative viability (621-102 (TSC2-deficient); 0.1 µM) was 107 ± 2.7%, the relative viability (621-102 (TSC2-deficient); 1 µM) was 86 ± 1.2% and the relative viability (621-102 (TSC2-deficient); 10 µM) was 88.5 ± 5.7%.
Compound C[C@@H]1CCN(C(=O)CC#N)C[C@@H]1N(C)c1ncnc2[nH]ccc12 has a relative viability (621-103 (TSC2-rescued); 0.0001 µM) of 104 ± 4.3%, a relative viability (621-103 (TSC2-rescued); 0.001 µM) of 100 ± 2.5% and a relative viability (621-103 (TSC2-rescued); 0.01 µM) of 99.134 ± 0.051%. The relative viability (621-103 (TSC2-rescued); 0.1 µM) was 102 ± 2.4%, the relative viability (621-103 (TSC2-rescued); 1 µM) was 107 ± 0.27% and the relative viability (621-103 (TSC2-rescued); 10 µM) was 96.7 ± 1.1%. It also gave a relative viability (621-102 (TSC2-deficient); 0.0001 µM) of 113 ± 2.6%, a relative viability (621-102 (TSC2-deficient); 0.001 µM) of 98.5 ± 1.1% and a relative viability (621-102 (TSC2-deficient); 0.01 µM) of 106 ± 4.8%. The relative viability (621-102 (TSC2-deficient); 0.1 µM) was 109 ± 1.1%, the relative viability (621-102 (TSC2-deficient); 1 µM) was 98.6 ± 2.7% and the relative viability (621-102 (TSC2-deficient); 10 µM) was 104 ± 1.3%.
Compound Cc1[nH]c(/C=C2\C(=O)Nc3ccc(S(=O)(=O)N(C)c4cccc(Cl)c4)cc32)c(C)c1C(=O)N1CCN(C)CC1 has a relative viability (621-103 (TSC2-rescued); 0.0001 µM) of 97.3 ± 1.6%, a relative viability (621-103 (TSC2-rescued); 0.001 µM) of 97.86 ± 0.64% and a relative viability (621-103 (TSC2-rescued); 0.01 µM) of 98.4 ± 2%. For the same compound, the relative viability (621-103 (TSC2-rescued); 0.1 µM) was 99.52 ± 0.97%, the relative viability (621-103 (TSC2-rescued); 1 µM) was 101.8 ± 0.38% and the relative viability (621-103 (TSC2-rescued); 10 µM) was 91.5 ± 3.8%. It also gave a relative viability (621-102 (TSC2-deficient); 0.0001 µM) of 98.4 ± 1.2%, a relative viability (621-102 (TSC2-deficient); 0.001 µM) of 101 ± 2.5% and a relative viability (621-102 (TSC2-deficient); 0.01 µM) of 101 ± 1.8%. For the same compound, the relative viability (621-102 (TSC2-deficient); 0.1 µM) was 91.6 ± 1.4%, the relative viability (621-102 (TSC2-deficient); 1 µM) was 100 ± 2.6% and the relative viability (621-102 (TSC2-deficient); 10 µM) was 87.2 ± 1.5%.
For Cc1[nH]nc2ccc(-c3cncc(OC[C@@H](N)Cc4ccccc4)c3)cc12, the relative viability (621-103 (TSC2-rescued); 0.0001 µM) was 98.7 ± 4.7%, the relative viability (621-103 (TSC2-rescued); 0.001 µM) was 89.14 ± 0.74% and the relative viability (621-103 (TSC2-rescued); 0.01 µM) was 95.77 ± 0.18%. The relative viability (621-103 (TSC2-rescued); 0.1 µM) was 101 ± 4%, the relative viability (621-103 (TSC2-rescued); 1 µM) was 62.2 ± 1% and the relative viability (621-103 (TSC2-rescued); 10 µM) was 6.08 ± 0.71%. For the same compound, the relative viability (621-102 (TSC2-deficient); 0.0001 µM) was 114.1 ± 0.3%, the relative viability (621-102 (TSC2-deficient); 0.001 µM) was 108 ± 3.1% and the relative viability (621-102 (TSC2-deficient); 0.01 µM) was 97.8 ± 2.1%. It also gave a relative viability (621-102 (TSC2-deficient); 0.1 µM) of 99.05 ± 0.49%, a relative viability (621-102 (TSC2-deficient); 1 µM) of 66.5 ± 1.1% and a relative viability (621-102 (TSC2-deficient); 10 µM) of 2.57 ± 0.016%.
